Like-named read-outs stand apart in the source and are kept apart here.
Legend:
[1] = test system: FL5.12 cells transfected with Bcl-XL; test: FL5.12 Cellular Assay (cell viability, CellTiter-Glo); format: cell-based, mouse
Description: For assaying the compound activity, the cells were exchanged into an IL-3-depleted deprivation media, which was identical to the growth media except for the absence of FBS and WEHI-3B conditional media, for 2 days. Then the cells were exchanged to 3% FBS assay media (RPMI with 2 mM glutamine, 1% 100 mM sodium pyruvate, 2% 1 M HEPES, 4 μL/L of β-mercaptoethanol, 1% penicillin-streptomycin, 3% FBS). Compounds in series dilutions were added, and the cells were cultured for 24 hours. […] Cell viability was assayed using the CellTiter-Glo assay (Promega Corp., Madison, Wis.) according to the manufacturer instructions. Individual determinations were the result of duplicate values.

Bcl-xL = Bcl-xL (Homo sapiens (Human), UniProt Q07817); test: Time Resolved-Fluorescence Resonance Energy Transfer (TR-FRET) binding assay, competition with F-Bak
[2] = mouse FL5.12 cells transfected with Bcl-XL, IL-3-depleted, 3% FBS assay media, 24 hours, read-out: FL5.12 Bcl-xL, IL3, EC 50
[3] = Mus musculus, FL5.12, 24 h, read-out: FL5.12 Bcl-xL, IL3, EC 50 (nM)

Chain of Bcl-xL (Q07817 whole entry): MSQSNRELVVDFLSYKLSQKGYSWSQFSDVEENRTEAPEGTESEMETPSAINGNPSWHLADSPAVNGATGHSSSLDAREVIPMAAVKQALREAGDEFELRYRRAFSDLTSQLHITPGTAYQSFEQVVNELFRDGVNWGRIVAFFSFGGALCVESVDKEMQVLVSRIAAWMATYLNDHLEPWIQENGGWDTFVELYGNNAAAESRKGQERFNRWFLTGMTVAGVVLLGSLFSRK

| Structure (SMILES) | EC50 [1, 2] [nM] | other results |
| --- | --- | --- |
| O=C(Nc1nc2ccccc2s1)c1cccc2c1CN(c1ccc(-c3cnn(Cc4cccnc4)c3)c(C(=O)O)n1)CC2 [Example 3, 6-[8-(1,3-benzothiazol-2-ylcarbamoyl)-3,4-dihydroisoquinolin-2(1H)-yl]-3-[1-(pyridin-3-ylmethyl)-1H-pyrazol-4-yl]pyridine-2-carboxylic acid] | > 1000 |  |
| COc1ccc2nc(NC(=O)c3cccc4c3CN(c3ccc(-c5cnn(Cc6ccccc6)c5)c(C(=O)O)n3)CC4)sc2c1 [Example 11, 3-(1-benzyl-1H-pyrazol-4-yl)-6-{8-[(6-methoxy-1,3-benzothiazol-2-yl)carbamoyl]-3,4-dihydroisoquinolin-2(1H)-yl}pyridine-2-carboxylic acid] | > 1000 |  |
| COc1cccc(Cn2cc(-c3ccc(N4CCc5cccc(C(=O)Nc6nc7ccccc7s6)c5C4)nc3C(=O)O)cn2)c1 [Example 14, 6-[8-(1,3-benzothiazol-2-ylcarbamoyl)-3,4-dihydroisoquinolin-2(1H)-yl]-3-[1-(3-methoxybenzyl)-1H-pyrazol-4-yl]pyridine-2-carboxylic acid] | > 1000 |  |
| O=C(Nc1nc2ccccc2s1)c1cccc2c1CN(c1ccc(-c3cnn(Cc4ccc(Cl)cc4)c3)c(C(=O)O)n1)CC2 [Example 15, 6-[8-(1,3-benzothiazol-2-ylcarbamoyl)-3,4-dihydroisoquinolin-2(1H)-yl]-3-[1-(4-chlorobenzyl)-1H-pyrazol-4-yl]pyridine-2-carboxylic acid] | > 1000 |  |
| O=C(Nc1nc2ccccc2s1)c1cccc2c1CN(c1ccc(-c3cnn(Cc4cccc(O)c4)c3)c(C(=O)O)n1)CC2 [Example 17, 6-[8-(1,3-benzothiazol-2-ylcarbamoyl)-3,4-dihydroisoquinolin-2(1H)-yl]-3-[1-(3-hydroxybenzyl)-1H-pyrazol-4-yl]pyridine-2-carboxylic acid] | > 1000 |  |
| O=C(Nc1nc2cccc(Cl)c2s1)c1cccc2c1CN(c1ccc(-c3cnn(Cc4ccccc4)c3)c(C(=O)O)n1)CC2 [Example 21, 3-(1-benzyl-1H-pyrazol-4-yl)-6-{8-[(7-chloro-1,3-benzothiazol-2-yl)carbamoyl]-3,4-dihydroisoquinolin-2(1H)-yl}pyridine-2-carboxylic acid] | > 1000 |  |
| N#Cc1cccc(Cn2cc(-c3ccc(N4CCc5cccc(C(=O)Nc6nc7ccccc7s6)c5C4)nc3C(=O)O)cn2)c1 [Example 24, 6-[8-(1,3-benzothiazol-2-ylcarbamoyl)-3,4-dihydroisoquinolin-2(1H)-yl]-3-[1-(3-cyanobenzyl)-1H-pyrazol-4-yl]pyridine-2-carboxylic acid] | > 1000 |  |
| O=C(Nc1nc2ccccc2s1)c1cccc2c1CN(c1ccc(-c3cnn(Cc4ccccn4)c3)c(C(=O)O)n1)CC2 [Example 26, 6-[8-(1,3-benzothiazol-2-ylcarbamoyl)-3,4-dihydroisoquinolin-2(1H)-yl]-3-[1-(pyridin-2-ylmethyl)-1H-pyrazol-4-yl]pyridine-2-carboxylic acid] | > 1000 |  |
| O=C(Nc1nc2ccccc2s1)c1cccc2c1CN(c1ccc(-c3cnn(CCc4ccccc4)c3)c(C(=O)O)n1)CC2 [Example 38, 6-[8-(1,3-benzothiazol-2-ylcarbamoyl)-3,4-dihydroisoquinolin-2(1H)-yl]-3-[1-(2-phenylethyl)-1H-pyrazol-4-yl]pyridine-2-carboxylic acid] | > 1000 |  |
| CC(C)(C)Cn1cc(-c2ccc(N3CCc4cccc(C(=O)Nc5nc6ccccc6s5)c4C3)nc2C(=O)O)cn1 [Example 59, 6-[8-(1,3-benzothiazol-2-ylcarbamoyl)-3,4-dihydroisoquinolin-2(1H)-yl]-3-[1-(2,2-dimethylpropyl)-1H-pyrazol-4-yl]pyridine-2-carboxylic acid] | > 1000 |  |
| Cc1c(-c2ccc(N3CCc4cccc(C(=O)Nc5nc6ccccc6s5)c4C3)nc2C(=O)O)cnn1C[C@@H]1CC[C@@H]2C[C@H]1C2(C)C [Example 85, 6-[8-(1,3-benzothiazol-2-ylcarbamoyl)-3,4-dihydroisoquinolin-2(1H)-yl]-3-(1-{[(1R,2R,5R)-6,6-dimethylbicyclo[3.1.1]hept-2-yl]methyl}-5-methyl-1H-pyrazol-4-yl)pyridine-2-carboxylic acid] | 12 |  |
| COCCCC1(Cn2ncc(-c3ccc(N4CCc5cccc(C(=O)Nc6nc7ccccc7s6)c5C4)nc3C(=O)O)c2C)CCCCC1 [Example 97, 6-[8-(1,3-benzothiazol-2-ylcarbamoyl)-3,4-dihydroisoquinolin-2(1H)-yl]-3-(1-{[1-(3-methoxypropyl)cyclohexyl]methyl}-5-methyl-1H-pyrazol-4-yl)pyridine-2-carboxylic acid] | < 1 |  |
| O=C(Nc1nc2ccccc2s1)c1cccc2c1CN(c1ccc(-c3cccc(Oc4ccccc4)c3)c(C(=O)O)n1)CC2 [Example 103, 6-[8-(1,3-benzothiazol-2-ylcarbamoyl)-3,4-dihydroisoquinolin-2(1H)-yl]-3-(3-phenoxyphenyl)pyridine-2-carboxylic acid] | > 1000 |  |
| Cc1c(OC2CCCC(C)(C)C2)cccc1-c1ccc(N2CCc3cccc(C(=O)Nc4nc5ccccc5s4)c3C2)nc1C(=O)O (centres unmarked) [Example 121, 6-[8-(1,3-benzothiazol-2-ylcarbamoyl)-3,4-dihydroisoquinolin-2(1H)-yl]-3-{3-[(3,3-dimethylcyclohexyl)oxy]-2-methylphenyl}pyridine-2-carboxylic acid] |  | EC50 [1, 3]: 87 nM |
| Cc1c(-c2ccc(N3CCc4cccc(C(=O)Nc5nc6ccccc6s5)c4C3)nc2C(=O)O)cccc1N(C)C1CCCC(C)(C)C1 (centres unmarked) [Example 159, 6-[8-(1,3-benzothiazol-2-ylcarbamoyl)-3,4-dihydroisoquinolin-2(1H)-yl]-3-{3-[(3,3-dimethylcyclohexyl)(methyl)amino]-2-methylphenyl}pyridine-2-carboxylic acid] |  | Ki (Bcl-xL): 0.0002 µM |
| Cc1[nH]c(C#N)c(CC2CCCCC2)c1-c1ccc(N2CCc3cccc(C(=O)Nc4nc5ccccc5s4)c3C2)nc1C(=O)NS(C)(=O)=O [Example 171, N-(1,3-benzothiazol-2-yl)-2-{5-[5-cyano-4-(cyclohexylmethyl)-2-methyl-1H-pyrrol-3-yl]-6-[(methylsulfonyl)carbamoyl]pyridin-2-yl}-1,2,3,4-tetrahydroisoquinoline-8-carboxamide] |  | EC50 [1, 3]: 97 nM; Ki (Bcl-xL; competition with F-Bak probe, GST-Bcl-xL, read-out: TR-FRET binding Bcl-xL Ki): < 0.0001 µM |
